Results: ChEMBL document CHEMBL2046376, “Synthesis and antimicrobial activity of amide derivatives of polyether antibiotic-salinomycin” (2012)
Converted amounts (≈) assume the structure as drawn. The source made the active and inactive calls. No cut-off for these calls is given here.

Tests used:
Format in all cases: functional
Staphylococcus aureus [1] = assay: Antibacterial activity against Staphylococcus aureus NCTC 4163 assessed as zone of inhibition at 400 ug/disc after 18 hrs by disc diffusion method; details: NCTC 4163, 18 h, read-out: DIZ
Staphylococcus aureus [2] = assay: Antibacterial activity against Staphylococcus aureus ATCC 25923 assessed as zone of inhibition at 400 ug/disc after 18 hrs by disc diffusion method; details: ATCC 25923, 18 h, read-out: DIZ
Staphylococcus aureus [3] = assay: Antibacterial activity against Staphylococcus aureus ATCC 6538 assessed as zone of inhibition at 400 ug/disc after 18 hrs by disc diffusion method; details: ATCC 6538, 18 h, read-out: DIZ
Staphylococcus aureus [4] = assay: Antibacterial activity against Staphylococcus aureus ATCC 29213 assessed as zone of inhibition at 400 ug/disc after 18 hrs by disc diffusion method; details: ATCC 29213, 18 h, read-out: DIZ
[5] = tested on: Staphylococcus epidermidis; assay: Antibacterial activity against Staphylococcus epidermidis ATCC 12228 assessed as zone of inhibition at 400 ug/disc after 18 hrs by disc diffusion method; details: ATCC 12228, 18 h, read-out: DIZ
[6] = tested on: Staphylococcus epidermidis; assay: Antibacterial activity against Staphylococcus epidermidis ATCC 35984 assessed as zone of inhibition at 400 ug/disc after 18 hrs by disc diffusion method; details: ATCC 35984, 18 h, read-out: DIZ
Escherichia coli [7] = assay: Antibacterial activity against Escherichia coli ATCC 10538 assessed as zone of inhibition at 400 ug/disc after 18 hrs by disc diffusion method; details: ATCC 10538, 18 h, read-out: DIZ
Escherichia coli [8] = assay: Antibacterial activity against Escherichia coli ATCC 25922 assessed as zone of inhibition at 400 ug/disc after 18 hrs by disc diffusion method; details: ATCC 25922, 18 h, read-out: DIZ
Escherichia coli [9] = assay: Antibacterial activity against Escherichia coli NCTC 8196 assessed as zone of inhibition at 400 ug/disc after 18 hrs by disc diffusion method; details: NCTC 8196, 18 h, read-out: DIZ
Proteus vulgaris [10] = assay: Antibacterial activity against Proteus vulgaris NCTC 4635 assessed as zone of inhibition at 400 ug/disc after 18 hrs by disc diffusion method; details: NCTC 4635, 18 h, read-out: DIZ
Pseudomonas aeruginosa [11] = assay: Antibacterial activity against Pseudomonas aeruginosa ATCC 15442 assessed as zone of inhibition at 400 ug/disc after 18 hrs by disc diffusion method; details: ATCC 15442, 18 h, read-out: DIZ
Pseudomonas aeruginosa [12] = assay: Antibacterial activity against Pseudomonas aeruginosa NCTC 6749 assessed as zone of inhibition at 400 ug/disc after 18 hrs by disc diffusion method; details: NCTC 6749, 18 h, read-out: DIZ
Pseudomonas aeruginosa [13] = assay: Antibacterial activity against Pseudomonas aeruginosa ATCC 27853 assessed as zone of inhibition at 400 ug/disc after 18 hrs by disc diffusion method; details: ATCC 27853, 18 h, read-out: DIZ
[14] = tested on: Bordetella bronchiseptica; assay: Antibacterial activity against Bordetella bronchiseptica ATCC 4617 assessed as zone of inhibition at 400 ug/disc after 18 hrs by disc diffusion method; details: ATCC 4617, 18 h, read-out: DIZ
Candida albicans [15] = assay: Antifungal activity against Candida albicans ATCC 10231 after 24 hrs by twofold serial agar dilution technique; details: for MIC: ATCC 10231, 24 h
Candida albicans [16] = assay: Antifungal activity against Candida albicans ATCC 90028 after 24 hrs by twofold serial agar dilution technique; details: for MIC: ATCC 90028, 24 h
Candida parapsilosis = assay: Antifungal activity against Candida parapsilosis ATCC 22019 after 24 hrs by twofold serial agar dilution technique; details: for MIC: Lodderomyces parapsilosis, ATCC 22019, 24 h
Staphylococcus aureus [17] = assay: Antibacterial activity against Staphylococcus aureus NCTC 4163 after 18 hrs by twofold serial agar dilution technique; details: NCTC 4163, 18 h
Staphylococcus aureus [18] = assay: Antibacterial activity against Staphylococcus aureus ATCC 25923 after 18 hrs by twofold serial agar dilution technique; details: ATCC 25923, 18 h
Staphylococcus aureus [19] = assay: Antibacterial activity against Staphylococcus aureus ATCC 6538 after 18 hrs by twofold serial agar dilution technique; details: ATCC 6538, 18 h
Staphylococcus aureus [20] = assay: Antibacterial activity against Staphylococcus aureus ATCC 29213 after 18 hrs by twofold serial agar dilution technique; details: ATCC 29213, 18 h
[21] = tested on: Staphylococcus epidermidis; assay: Antibacterial activity against Staphylococcus epidermidis ATCC 12228 after 18 hrs by twofold serial agar dilution technique; details: ATCC 12228, 18 h
[22] = tested on: Staphylococcus epidermidis; assay: Antibacterial activity against Staphylococcus epidermidis ATCC 35984 after 18 hrs by twofold serial agar dilution technique; details: ATCC 35984, 18 h
Escherichia coli [23] = assay: Antibacterial activity against Escherichia coli ATCC 10538 after 18 hrs by twofold serial agar dilution technique; details: for MIC: ATCC 10538, 18 h
Escherichia coli [24] = assay: Antibacterial activity against Escherichia coli ATCC 25922 after 18 hrs by twofold serial agar dilution technique; details: ATCC 25922, 18 h
Escherichia coli [25] = assay: Antibacterial activity against Escherichia coli NCTC 8196 after 18 hrs by twofold serial agar dilution technique; details: for MIC: NCTC 8196, 18 h
Proteus vulgaris [26] = assay: Antibacterial activity against Proteus vulgaris NCTC 4635 after 18 hrs by twofold serial agar dilution technique; details: for MIC: NCTC 4635, 18 h
Pseudomonas aeruginosa [27] = assay: Antibacterial activity against Pseudomonas aeruginosa ATCC 15442 after 18 hrs by twofold serial agar dilution technique; details: for MIC: ATCC 15442, 18 h
Pseudomonas aeruginosa [28] = assay: Antibacterial activity against Pseudomonas aeruginosa NCTC 6749 after 18 hrs by twofold serial agar dilution technique; details: for MIC: NCTC 6749, 18 h
Pseudomonas aeruginosa [29] = assay: Antibacterial activity against Pseudomonas aeruginosa ATCC 27853 after 18 hrs by twofold serial agar dilution technique; details: for MIC: ATCC 27853, 18 h
[30] = tested on: Bordetella bronchiseptica; assay: Antibacterial activity against Bordetella bronchiseptica ATCC 4617 after 18 hrs by twofold serial agar dilution technique; details: for MIC: ATCC 4617, 18 h

Row | Compound | zone of inhibition at 400 µg/disc (Staphylococcus aureus [1]) | zone of inhibition at 400 µg/disc (Staphylococcus aureus [2]) | zone of inhibition at 400 µg/disc (Staphylococcus aureus [3]) | zone of inhibition at 400 µg/disc (Staphylococcus aureus [4]) | zone of inhibition at 400 µg/disc [5] | zone of inhibition at 400 µg/disc [6] | zone of inhibition at 400 µg/disc (Escherichia coli [7]) | zone of inhibition at 400 µg/disc (Escherichia coli [8]) | zone of inhibition at 400 µg/disc (Escherichia coli [9]) | zone of inhibition at 400 µg/disc (Proteus vulgaris [10]) | zone of inhibition at 400 µg/disc (Pseudomonas aeruginosa [11]) | zone of inhibition at 400 µg/disc (Pseudomonas aeruginosa [12]) | zone of inhibition at 400 µg/disc (Pseudomonas aeruginosa [13]) | zone of inhibition at 400 µg/disc [14] | MIC (Candida albicans [15]) | MIC (Candida albicans [16]) | MIC (Candida parapsilosis) | MIC (Staphylococcus aureus [17]) | MIC (Staphylococcus aureus [20]) | MIC [22] | further results
1 | CC[C@@H](C(=O)[C@@H](C)[C@@H](O)[C@H](C)[C@@H]1O[C@@H]([C@@H](CC)C(=O)NCc2ccccc2)CC[C@@H]1C)[C@H]1O[C@]2(C=C[C@@H](O)[C@]3(CC[C@@](C)([C@H]4CC[C@](O)(CC)[C@H](C)O4)O3)O2)[C@H](C)C[C@@H]1C | 10 mm | 10 mm | 10 mm | 10 mm | 10 mm | 10 mm | 10 mm | 10 mm | 10 mm | 10 mm | 10 mm | 10 mm | 10 mm | 10 mm | ≥ 256 µg/mL | ≥ 256 µg/mL | ≥ 256 µg/mL | ≥ 256 µg/mL | ≥ 256 µg/mL | ≥ 256 µg/mL | MIC (Staphylococcus aureus [18]): ≥ 256 µg/mL; MIC (Staphylococcus aureus [19]): ≥ 256 µg/mL; MIC [21]: ≥ 256 µg/mL; MIC (Escherichia coli [23]): ≥ 256 µg/mL; MIC (Escherichia coli [24]): ≥ 256 µg/mL; MIC (Escherichia coli [25]): ≥ 256 µg/mL; MIC (Proteus vulgaris [26]): ≥ 256 µg/mL; MIC (Pseudomonas aeruginosa [27]): ≥ 256 µg/mL; MIC (Pseudomonas aeruginosa [28]): ≥ 256 µg/mL; MIC (Pseudomonas aeruginosa [29]): ≥ 256 µg/mL; MIC [30]: ≥ 256 µg/mL
2 | C=CCNC(=O)[C@H](CC)[C@H]1CC[C@H](C)[C@H]([C@@H](C)[C@H](O)[C@H](C)C(=O)[C@H](CC)[C@H]2O[C@]3(C=C[C@@H](O)[C@]4(CC[C@@](C)([C@H]5CC[C@](O)(CC)[C@H](C)O5)O4)O3)[C@H](C)C[C@@H]2C)O1 [SALINOMYCIN ALLYL AMIDE] | 10 mm | 10 mm | 10 mm | 10 mm | 10 mm | 10 mm | 10 mm | 10 mm | 10 mm | 10 mm | 10 mm | 10 mm | 10 mm | 10 mm | ≥ 256 µg/mL | ≥ 256 µg/mL | ≥ 256 µg/mL | ≥ 256 µg/mL | ≥ 256 µg/mL | ≥ 256 µg/mL | MIC (Staphylococcus aureus [18]): ≥ 256 µg/mL; MIC (Staphylococcus aureus [19]): ≥ 256 µg/mL; MIC [21]: ≥ 256 µg/mL; MIC (Escherichia coli [23]): ≥ 256 µg/mL; MIC (Escherichia coli [24]): ≥ 256 µg/mL; MIC (Escherichia coli [25]): ≥ 256 µg/mL; MIC (Proteus vulgaris [26]): ≥ 256 µg/mL; MIC (Pseudomonas aeruginosa [27]): ≥ 256 µg/mL; MIC (Pseudomonas aeruginosa [28]): ≥ 256 µg/mL; MIC (Pseudomonas aeruginosa [29]): ≥ 256 µg/mL; MIC [30]: ≥ 256 µg/mL
3 | CC[C@@H](C(=O)[C@@H](C)[C@@H](O)[C@H](C)[C@@H]1O[C@@H]([C@@H](CC)C(=O)NCCc2c[nH]c3ccccc23)CC[C@@H]1C)[C@H]1O[C@]2(C=C[C@@H](O)[C@]3(CC[C@@](C)([C@H]4CC[C@](O)(CC)[C@H](C)O4)O3)O2)[C@H](C)C[C@@H]1C | 10 mm | 10 mm | 10 mm | 10 mm | 10 mm | 10 mm | 10 mm | 10 mm | 10 mm | 10 mm | 10 mm | 10 mm | 10 mm | 10 mm | ≥ 256 µg/mL | ≥ 256 µg/mL | ≥ 256 µg/mL | ≥ 256 µg/mL | ≥ 256 µg/mL | ≥ 256 µg/mL | MIC (Staphylococcus aureus [18]): ≥ 256 µg/mL; MIC (Staphylococcus aureus [19]): ≥ 256 µg/mL; MIC [21]: ≥ 256 µg/mL; MIC (Escherichia coli [23]): ≥ 256 µg/mL; MIC (Escherichia coli [24]): ≥ 256 µg/mL; MIC (Escherichia coli [25]): ≥ 256 µg/mL; MIC (Proteus vulgaris [26]): ≥ 256 µg/mL; MIC (Pseudomonas aeruginosa [27]): ≥ 256 µg/mL; MIC (Pseudomonas aeruginosa [28]): ≥ 256 µg/mL; MIC (Pseudomonas aeruginosa [29]): ≥ 256 µg/mL; MIC [30]: ≥ 256 µg/mL
4 | O=C(O)c1cn(C2CC2)c2cc(N3CCNCC3)c(F)cc2c1=O [CIPROFLOXACIN] | 26 mm | 26 mm | 28 mm | 22 mm | 30 mm | 32 mm | – | – | – | – | – | – | – | – | – | – | – | – | 0.25 µg/mL (≈ 0.754 µM) | 0.25 µg/mL (≈ 0.754 µM) | Activity (Candida albicans [15]): inactive; Activity (Candida albicans [16]): inactive; Activity (Candida parapsilosis): inactive; Activity (Escherichia coli [23]): inactive; Activity (Escherichia coli [25]): inactive; Activity (Proteus vulgaris [26]): inactive; Activity (Pseudomonas aeruginosa [27]): inactive; Activity (Pseudomonas aeruginosa [28]): inactive; Activity (Pseudomonas aeruginosa [29]): inactive; Activity [30]: inactive
